This assay has as its target T1, PSMA on LNCaP cells (Homo sapiens, UniProt Q04609).
T1 construct: endogenous in cells; host or cells: LNCaP prostate cancer cells
Put plainly: In vitro competition binding assay (displacement of 18F-DCFPyL). The following applies: for Ki: inhibition of 18F-DCFPyL binding to PSMA on LNCaP cells, n=3. As for the experimental part:
1.14 In Vitro Competition Binding Assay
In vitro competition binding assays were conducted as previously reported using LNCaP prostate cancer cells and ^18F-DCFPyL as the radioligand. ^18 Briefly, LNCaP cells (400,000/well) were plated onto a 24-well poly-D-lysine coated plate for 48 h. Growth media was removed and replaced with HEPES buffered saline (50 mM HEPES, pH 7.5, 0.9% sodium chloride) and the cells were incubated for 1 h at 37° C. ^18F-DCFPyL (0.1 nM) was added to each well (in triplicate) containing various concentrations ([…]) of tested compounds (Lu-PSMA-617 or Lu-HTK01169). Non-specific binding was determined in the presence of 10 μM non-radiolabeled DCFPyL. The assay mixtures were further incubated for 1 h at 37° C. with gentle agitation. Then, the buffer and hot ligand were removed, and cells were washed twice with cold HEPES buffered saline. To harvest the cells, 400 μL of 0.25% trypsin solution was added to each well. Radioactivity was measured on a PerkinElmer (Waltham, Mass.) Wizard2 2480 automatic gamma counter. Nonlinear regression analyses and Ki calculations were performed using the GraphPad Prism 7 software.

Consider two compounds from US20200339625A1, “NOVEL RADIOMETAL-BINDING COMPOUNDS FOR DIAGNOSIS OR TREATMENT OF PROSTATE SPECIFIC MEMBRANE ANTIGEN-EXPRESSING CANCER” (PROVINCIAL HEALTH SERVICES AUTHORITY, priority 2017, published 2020).

T1 sequence (Q04609 whole entry): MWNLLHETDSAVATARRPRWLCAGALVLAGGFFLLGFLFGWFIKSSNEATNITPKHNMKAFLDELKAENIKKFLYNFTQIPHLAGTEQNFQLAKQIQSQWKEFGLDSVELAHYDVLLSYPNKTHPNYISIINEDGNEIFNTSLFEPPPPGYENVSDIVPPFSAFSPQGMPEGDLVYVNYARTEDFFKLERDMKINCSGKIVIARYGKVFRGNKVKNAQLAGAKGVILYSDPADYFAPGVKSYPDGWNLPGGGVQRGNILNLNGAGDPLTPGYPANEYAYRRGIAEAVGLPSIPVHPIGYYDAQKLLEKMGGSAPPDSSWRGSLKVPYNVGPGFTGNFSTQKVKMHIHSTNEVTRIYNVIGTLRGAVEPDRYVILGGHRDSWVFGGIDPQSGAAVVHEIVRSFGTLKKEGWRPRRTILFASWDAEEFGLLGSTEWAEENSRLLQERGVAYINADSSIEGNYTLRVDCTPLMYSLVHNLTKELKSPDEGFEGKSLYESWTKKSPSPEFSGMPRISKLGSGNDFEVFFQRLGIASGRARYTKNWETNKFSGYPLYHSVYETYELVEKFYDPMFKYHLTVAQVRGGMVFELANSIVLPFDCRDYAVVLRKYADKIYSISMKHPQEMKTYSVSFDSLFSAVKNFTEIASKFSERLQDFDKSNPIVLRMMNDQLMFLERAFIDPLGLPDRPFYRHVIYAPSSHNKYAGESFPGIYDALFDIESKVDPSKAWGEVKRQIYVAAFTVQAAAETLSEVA

The compound `O=C([O-])CN1CCN(CC(=O)[O-])CCN(CC(=O)NCC2CCC(C(=O)N[C@@H](Cc3ccc4ccccc4c3)C(=O)NCCCC[C@H](NC(=O)N[C@@H](CCC(=O)O)C(=O)O)C(=O)O)CC2)CCN(CC(=O)[O-])CC1.[Lu+3]` (stereo partly drawn) [Lu-PSMA-617, reference compound] had an inhibitory constant (Ki) of 240 ± 60 pM. `O=C([O-])CN1CCN(CC(=O)[O-])CCN(CC(=O)NCCCC[C@H](NC(=O)[C@H](CCC(=O)O)NC(=O)CCCc2ccc(I)cc2)C(=O)NC[C@H]2CC[C@H](C(=O)N[C@@H](Cc3ccc4ccccc4c3)C(=O)NCCCC[C@H](NC(=O)N[C@@H](CCC(=O)O)C(=O)O)C(=O)O)CC2)CCN(CC(=O)[O-])CC1.[Lu+3]` [Lu-HTK01169]: the affinity, expressed as Ki, was 40 ± 10 pM. Also, the “improvement in PSMA binding compared to Lu-PSMA-617” value (ratio of Ki values) came out at 6 fold.
